# Measured values as given in patent US9206195B2, “Dihydrothienopyrimidines” (Boehringer Ingelheim International GmbH, priority 2011, dated 2015).
# Tested on: Aβ42 production (γ-secretase) in H4 neuroglioma cells stably expressing the human APP695 isoform
# Assay: Screening for preferential inhibition of Aβ42 vs. total Aβ production in H4 neuroglioma cells (Meso Scale Discovery electrochemiluminescence assays on supernatant)
# Assay type: cell-based
# Conditions: for IC50: 22 hours incubation, Aβ42 in supernatant, read-out: Aβ42 cellular IC50; for Ratio Aβ(total)/Aβ42 (Aβ total IC50/Aβ42 IC50): higher ratio = more specific inhibition of Aβ42 over Aβ total
# Protocol: Cells were plated out to near confluency. The compounds to be tested were received as 10 mM stocks in 100% DMSO. A dilution series was initially generated in 100% DMSO and then diluted 200-fold in cell culture media such that the tested concentration range was 30 μM to 0.1 nM and the final DMSO concentration was 0.5%. The diluted compounds were incubated with the cells for 22 hours in an incubator at 37° C. and 5% CO2. Aβ42 as well as Aβ total levels were then measured post-incubation from the supernatant of the cells. Aβ42 levels were determined using a specific electrochemiluminescence assay provided by Meso Scale Discovery (Catalog #L21CA-1) according to the manufacturer's protocol. Aβ total levels were likewise determined using a specific electrochemiluminescence assay provided by Meso Scale Discovery (Catalog #L21ZA-1) according to the manufacturer's protocol.
# In order to absolutely define the described compounds as modulators of γ-Secretase as opposed to simply inhibitors of γ-Secretase, measurements of not only Aβ42 but also Aβ total are performed.
IC50 [nM],Ratio Aβ(total)/Aβ42 (Aβ total IC50/Aβ42 IC50),Structure (SMILES)
100,242,COc1cc(Nc2nc3c(c(N(C)C)n2)SC2(CCC2)C3)ccc1-c1cnc(C)o1 [Example 7]
1190,25,Cc1cn(-c2ccc(Nc3nc4c(c(N(C)C)n3)[S+]([O-])C3(CCC3)C4)cc2C#N)cn1 (centres unmarked) [Example 23]
1380,8,Cc1cc(-c2ccc(Nc3nc4c(c(N(C)C)n3)SC3(CCC3)C4)cc2)ccn1 [Example 20]
130,110,COc1cc(Nc2nc(C)c3c(n2)CC2(CCC2)S3)ccc1-n1cnc(C)c1 [Example 10]
820,>36,COc1cc(Nc2nc3c(c(N4CCCCC4)n2)SC2(CCOCC2)C3)ccc1-n1cnc(C)c1 [Example 16]
1550,19,COc1cc(Nc2nc(C)c3c(n2)CC2(CCC2)[S+]3[O-])ccc1-n1cnc(C)c1 (centres unmarked) [Example 11]
220,54,COc1cc(Nc2nc3c(c(NC4CCCC4)n2)[S+]([O-])C2(CCC2)C3)ccc1-n1cnc(C)c1 (centres unmarked) [Example 5]
530,51,COc1cc(Nc2nc3c(c(N4CCCCC4)n2)[S+]([O-])C2(CCOCC2)C3)ccc1-n1cnc(C)c1 (centres unmarked) [Example 17]
120,100,COc1cc(Nc2nc3c(c(N4CCCCC4)n2)[S+]([O-])C2(CCCCC2)C3)ccc1-n1cnc(C)c1 (centres unmarked) [Example 14]
370,55,Cc1cn(-c2ccc(Nc3nc4c(c(N(C)C)n3)SC3(CCC3)C4)cc2C#N)cn1 [Example 19]
300,61,COc1cc(Nc2nc3c(c(N(C)C)n2)[S+]([O-])C2(CCCCC2)C3)ccc1-n1cnc(C)c1 (centres unmarked) [Example 15]
140,55,COc1cc(Nc2nc3c(c(N4CCOCC4)n2)SC2(CCC2)C3)ccc1-n1cnc(C)c1 [Example 6]
520,51,Cc1ncc(-c2ccc(Nc3nc4c(c(N(C)C)n3)SC3(CCC3)C4)cn2)o1 [Example 2]
120,61,COc1cc(Nc2nc3c(c(N(C)C)n2)SC2(CCCCC2)C3)ccc1-n1cnc(C)c1 [Example 12]
770,12,Cc1cc(-c2ccc(Nc3nc4c(c(N(C)C)n3)[S+]([O-])C3(CCC3)C4)cc2)ccn1 (centres unmarked) [Example 22]
3250,>9,COc1cc(Nc2nc3c(c(N4CCOCC4)n2)[S+]([O-])C2(CCC2)C3)ccc1-n1cnc(C)c1 (centres unmarked) [Example 8]
90,85,COc1cc(Nc2nc3c(c(N4CCCCC4)n2)SC2(CCC2)C3)ccc1-n1cnc(C)c1 [Example 3]
19700,1,COc1cc(Nc2nc3c(c(C(C)C)n2)[S+]([O-])C2(CCCCC2)C3)ccc1-n1cnc(C)c1 (centres unmarked) [Example 21]
130,57,COc1cc(Nc2nc3c(c(N4CCCCC4)n2)SC2(CCCCC2)C3)ccc1-n1cnc(C)c1 [Example 13]
190,37,COc1cc(Nc2nc3c(c(NC4CCCC4)n2)SC2(CCC2)C3)ccc1-n1cnc(C)c1 [Example 1]
7590,2,COc1cc(Nc2nc3c(c(C(C)C)n2)SC2(CCCCC2)C3)ccc1-n1cnc(C)c1 [Example 18]
130,50,COc1cc(Nc2nc3c(c(N(C)C)n2)SC2(CCC2)C3)ccc1-n1cnc(C)c1 [Example 4]
